Data reported in patent US20190352288A1, “MATRIX METALLOPROTEINASE (MMP) INHIBITORS AND METHODS OF USE THEREOF” (Foresee Pharmaceuticals Co., Ltd., priority 2018, published 2019).

What was measured:
Format in all cases: biochemical
Settings in all cases: Table 2 selectivity profile
recombinant human MMP-7 = biological target: T1, recombinant human MMP-7 (Homo sapiens, UniProt P09237); assay: MMP selectivity assay, MMP-7
T1 sequence (P09237 95-267): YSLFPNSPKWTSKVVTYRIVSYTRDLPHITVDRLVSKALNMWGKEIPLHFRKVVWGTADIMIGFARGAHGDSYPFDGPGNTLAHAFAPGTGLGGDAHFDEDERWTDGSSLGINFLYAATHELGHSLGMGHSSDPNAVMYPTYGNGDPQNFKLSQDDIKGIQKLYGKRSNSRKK
Description: (§1) The inhibitory effect of compounds on the rate of cleaving fluorogenic MMP substrate (Enzo, BML-P128) by recombinant human MMP-12 catalytic domain (Enzo, BML-SE138) was carried out by methods known in the art. Briefly, to each well of a 96-well black opaque plate, all the reagents were sequentially added by pipetting, and the final reaction contained 4 nM of recombinant human MMP-12 catalytic domain, 4 μM of fluorogenic MMP substrate, and various concentrations (0.15 nM to 10,000 nM) of tested compound dilutions in HEPES buffer (pH 7.5) containing 10 mM of CaCl2), 0.01% Brij® 35 (polyoxyethylene (23) lauryl ether), and 0.1 mg/ml of BSA.
(§2) The enzyme and compounds were pre-incubated on a shaker to mix in wells. After an hour of mixing, fluorogenic substrate was added to each well. Reaction without enzyme was used as a blank control in the plate. The plate was then fed into a plate reader to measure fluorescence intensity at Excitation/Emission wavelengths of 340 nm/440 nm every 10 mins for at least 1 hour at 37° C. The IC50 of each compound in MMP-12 inhibition was determined by using a readout obtained at time point 30 minutes.
(§3) The MMP selectivity assay was performed by using other recombinant human MMPs, including MMP-1, MMP-2, MMP-3, MMP-7, MMP-8, MMP-9, MMP-10, MMP-13, and MMP-14. The IC50 of the compounds for the other recombinant human MMPs was determined as described above in Example 1, and are shown in Table 2.

recombinant human MMP-9 = recombinant human MMP-9 (Homo sapiens, UniProt P14780); assay: MMP selectivity assay, MMP-9
Chain of recombinant human MMP-9 (P14780 94-707): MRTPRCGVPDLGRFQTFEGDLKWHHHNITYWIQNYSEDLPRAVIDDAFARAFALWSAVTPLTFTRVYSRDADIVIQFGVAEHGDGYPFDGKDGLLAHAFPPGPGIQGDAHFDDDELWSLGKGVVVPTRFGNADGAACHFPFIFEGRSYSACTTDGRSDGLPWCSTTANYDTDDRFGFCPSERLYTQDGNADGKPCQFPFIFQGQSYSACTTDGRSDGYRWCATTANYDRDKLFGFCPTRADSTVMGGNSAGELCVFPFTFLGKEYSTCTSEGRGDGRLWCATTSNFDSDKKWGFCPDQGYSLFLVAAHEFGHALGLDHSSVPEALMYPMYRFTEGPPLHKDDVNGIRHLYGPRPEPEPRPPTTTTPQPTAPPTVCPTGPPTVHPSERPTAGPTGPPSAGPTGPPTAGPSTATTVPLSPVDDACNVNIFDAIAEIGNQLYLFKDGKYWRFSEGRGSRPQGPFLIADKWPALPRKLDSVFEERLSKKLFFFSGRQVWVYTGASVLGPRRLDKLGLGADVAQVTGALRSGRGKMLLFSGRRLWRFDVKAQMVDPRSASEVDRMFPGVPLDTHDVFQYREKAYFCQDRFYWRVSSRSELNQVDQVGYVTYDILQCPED
Description: as §1, §2, §3

recombinant human MMP-1 = biological target: T2, recombinant human MMP-1 (Homo sapiens, UniProt P03956); assay: MMP selectivity assay, MMP-1
T2 sequence (P03956 100-469): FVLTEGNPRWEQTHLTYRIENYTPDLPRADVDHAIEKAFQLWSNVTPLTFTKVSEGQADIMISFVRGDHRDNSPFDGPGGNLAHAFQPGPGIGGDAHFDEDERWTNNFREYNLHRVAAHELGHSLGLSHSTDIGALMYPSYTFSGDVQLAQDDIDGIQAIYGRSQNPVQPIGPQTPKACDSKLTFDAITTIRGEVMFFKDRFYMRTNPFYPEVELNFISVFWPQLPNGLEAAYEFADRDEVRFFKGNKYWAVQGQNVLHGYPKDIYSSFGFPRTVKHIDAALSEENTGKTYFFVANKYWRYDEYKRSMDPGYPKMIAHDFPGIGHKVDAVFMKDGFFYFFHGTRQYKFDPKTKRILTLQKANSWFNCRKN
Description: as §1, §2, §3

recombinant human MMP-8 = recombinant human MMP-8 (Homo sapiens, UniProt P22894); assay: MMP selectivity assay, MMP-8
Chain of recombinant human MMP-8 (P22894 101-467): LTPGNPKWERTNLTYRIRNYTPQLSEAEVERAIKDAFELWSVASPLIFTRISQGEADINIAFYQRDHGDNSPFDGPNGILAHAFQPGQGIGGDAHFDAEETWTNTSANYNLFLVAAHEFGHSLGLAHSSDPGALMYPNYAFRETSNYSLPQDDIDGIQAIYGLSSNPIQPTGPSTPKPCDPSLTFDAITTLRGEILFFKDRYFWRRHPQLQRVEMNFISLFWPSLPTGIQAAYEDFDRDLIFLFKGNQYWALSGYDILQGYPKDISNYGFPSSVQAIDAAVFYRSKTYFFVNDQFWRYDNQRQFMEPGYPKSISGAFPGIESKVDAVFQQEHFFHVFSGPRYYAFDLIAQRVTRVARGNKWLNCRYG
Description: as §1, §2, §3

recombinant human MMP-2 = biological target: T3, recombinant human MMP-2 (Homo sapiens, UniProt P08253); assay: MMP selectivity assay, MMP-2
T3 sequence (P08253 110-660): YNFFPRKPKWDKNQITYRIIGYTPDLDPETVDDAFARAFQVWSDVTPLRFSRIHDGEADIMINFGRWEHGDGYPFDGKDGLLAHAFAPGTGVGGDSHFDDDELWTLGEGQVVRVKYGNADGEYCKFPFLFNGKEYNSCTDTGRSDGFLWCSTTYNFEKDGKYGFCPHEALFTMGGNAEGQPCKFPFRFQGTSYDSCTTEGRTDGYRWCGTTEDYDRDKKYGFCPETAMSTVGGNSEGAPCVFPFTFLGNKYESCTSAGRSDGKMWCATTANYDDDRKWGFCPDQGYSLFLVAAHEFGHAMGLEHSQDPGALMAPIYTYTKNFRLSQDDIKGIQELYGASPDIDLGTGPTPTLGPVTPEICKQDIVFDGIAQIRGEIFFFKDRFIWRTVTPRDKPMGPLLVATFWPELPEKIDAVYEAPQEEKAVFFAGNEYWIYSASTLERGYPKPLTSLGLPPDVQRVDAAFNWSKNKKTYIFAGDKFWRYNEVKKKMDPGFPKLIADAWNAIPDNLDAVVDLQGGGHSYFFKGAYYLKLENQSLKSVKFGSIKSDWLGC
Description: as §1, §2, §3

recombinant human MMP-10 = recombinant human MMP-10 (Homo sapiens, UniProt P09238); assay: MMP selectivity assay, MMP-10
Chain of recombinant human MMP-10 (P09238 99-476): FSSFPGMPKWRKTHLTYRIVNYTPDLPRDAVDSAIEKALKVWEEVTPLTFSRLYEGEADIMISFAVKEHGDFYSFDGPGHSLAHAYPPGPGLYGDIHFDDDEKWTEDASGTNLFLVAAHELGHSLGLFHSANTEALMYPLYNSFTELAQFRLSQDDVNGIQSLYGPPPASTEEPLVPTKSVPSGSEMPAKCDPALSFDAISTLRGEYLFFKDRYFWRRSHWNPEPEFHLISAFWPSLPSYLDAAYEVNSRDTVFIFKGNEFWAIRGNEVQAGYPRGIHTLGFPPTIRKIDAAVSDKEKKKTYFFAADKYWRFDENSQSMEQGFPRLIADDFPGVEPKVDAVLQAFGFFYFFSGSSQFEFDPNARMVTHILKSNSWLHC
Description: as §1, §2, §3

recombinant human MMP-14 = recombinant human MMP-14 (Homo sapiens, UniProt P50281); assay: MMP selectivity assay, MMP-14
Description: as §1, §2, §3

recombinant human MMP-3 = recombinant human MMP-3 (Homo sapiens, UniProt P08254); assay: MMP selectivity assay, MMP-3
Chain of recombinant human MMP-3 (P08254 100-477): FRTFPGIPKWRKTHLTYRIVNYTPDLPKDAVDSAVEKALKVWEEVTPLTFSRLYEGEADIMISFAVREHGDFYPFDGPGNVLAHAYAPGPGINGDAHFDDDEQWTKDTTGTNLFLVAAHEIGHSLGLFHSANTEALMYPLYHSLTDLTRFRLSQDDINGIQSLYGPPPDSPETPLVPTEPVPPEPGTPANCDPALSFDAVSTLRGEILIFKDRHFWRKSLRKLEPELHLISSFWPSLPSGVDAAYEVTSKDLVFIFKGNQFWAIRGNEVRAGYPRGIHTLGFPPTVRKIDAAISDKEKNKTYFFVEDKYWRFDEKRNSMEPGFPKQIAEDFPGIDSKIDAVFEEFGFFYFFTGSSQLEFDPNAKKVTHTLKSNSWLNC
Description: as §1, §2, §3

recombinant human MMP-13 = recombinant human MMP-13 (Homo sapiens, UniProt P45452); assay: MMP selectivity assay, MMP-13
Description: as §1, §2, §3

| SMILES | IC50 (recombinant human MMP-7) [µM] | IC50 (recombinant human MMP-9) [µM] | IC50 (recombinant human MMP-1) [µM] | IC50 (recombinant human MMP-8) [µM] | IC50 (recombinant human MMP-2) [µM] | IC50 (recombinant human MMP-10) [µM] | IC50 (recombinant human MMP-14) [µM] | IC50 (recombinant human MMP-3) [µM] | IC50 (recombinant human MMP-13) [µM] |
| --- | --- | --- | --- | --- | --- | --- | --- | --- | --- |
| Cc1cc(COc2ccc(Sc3ncoc3C3NC(=O)NC3=O)cc2)ccn1 (stereo not drawn) [OC-7] | > 10 | 1 to 10 | > 10 | 0.1 to 1 | 0.1 to 1 | 1 to 10 | > 10 | 1 to 10 | 0.1 to 1 |
| Cc1cc(COc2ccc(Sc3cnn(C)c3C3NC(=O)NC3=O)cc2)ccn1 (stereo not drawn) [OC-12] | > 10 | 1 to 10 | > 10 | 0.1 to 1 | 0.1 to 1 | 1 to 10 | 1 to 10 | 1 to 10 | 0.1 to 1 |
| Cc1cc(COc2ccc(Sc3ncn(C)c3C3NC(=O)NC3=O)cc2)ccn1 (stereo not drawn) [OC-13] | > 10 | 1 to 10 | > 10 | 0.1 to 1 | 0.1 to 1 | 1 to 10 | 0.1 to 1 | 1 to 10 | 0.1 to 1 |
| O=C1NC(=O)C(c2cnccc2Sc2ccc(OCc3cccc(CO)c3)cc2)N1 (stereo not drawn) [PC-8] | > 10 | > 10 | > 10 | > 10 | 1 to 10 | > 10 | > 10 | 1 to 10 | 1 to 10 |
| O=C1NC(=O)C(c2cnccc2Sc2ccc(OCc3cccc(O)c3)cc2)N1 (stereo not drawn) [PC-10] | > 10 | 1 to 10 | > 10 | 1 to 10 | 1 to 10 | > 10 | > 10 | 1 to 10 | 1 to 10 |
| O=C1NC(=O)C(c2ccncc2Sc2ccc(OCc3ccccc3CO)cc2)N1 (stereo not drawn) [PC-12] | > 10 | 1 to 10 | > 10 | 1 to 10 | 1 to 10 | 1 to 10 | > 10 | 0.1 to 1 | > 10 |
| O=C1NC(=O)C(c2ccncc2Sc2ccc(OCc3cccc(CO)c3)cc2)N1 (stereo not drawn) [PC-13] | > 10 | 1 to 10 | > 10 | 1 to 10 | 1 to 10 | 1 to 10 | > 10 | 0.1 to 1 | 1 to 10 |
| CCC1(c2cnccc2Sc2ccc(OCc3cccc(C)c3)cc2)NC(=O)NC1=O (stereo not drawn) [PC-22] | > 10 | 1 to 10 | > 10 | 1 to 10 | 1 to 10 | 1 to 10 | 1 to 10 | 0.1 to 1 | 0.1 to 1 |
| NC(=O)c1cccc(COc2ccc(Sc3ccncc3C3NC(=O)NC3=O)cc2)c1 (stereo not drawn) [PC-28] | > 10 | 1 to 10 | > 10 | 0.1 to 1 | 1 to 10 | 1 to 10 | 1 to 10 | 1 to 10 | 0.1 to 1 |
| Cc1cc(COc2ccc(Sc3ccncc3C3NC(=O)NC3=O)cc2C)ccn1 (stereo not drawn) [PC-48] | > 10 | 1 to 10 | > 10 | 1 to 10 | 1 to 10 | 1 to 10 | > 10 | 1 to 10 | 0.1 to 1 |
| Cc1cc(COc2ccc(Sc3ccncc3C3NC(=O)NC3=O)c(F)c2)ccn1 (stereo not drawn) [PC-50] | > 10 | 1 to 10 | > 10 | 0.1 to 1 | 0.1 to 1 | 1 to 10 | 1 to 10 | 0.1 to 1 | 0.1 to 1 |
| Cc1cc(COc2ccc(Sc3ccncc3C3NC(=O)NC3=O)c(Cl)c2)ccn1 (stereo not drawn) [PC-51] | 1 to 10 | 1 to 10 | > 10 | 0.1 to 1 | 1 to 10 | 1 to 10 | 1 to 10 | 1 to 10 | 0.1 to 1 |
| O=C1NC(=O)C(c2sccc2Sc2ccc(OCc3cccc(CO)c3)cc2)N1 (stereo not drawn) [TC4] | > 10 | 1 to 10 | > 10 | 0.1 to 1 | 1 to 10 | 1 to 10 | 1 to 10 | 0.1 to 1 | 1 to 10 |
| O=C1NC(=O)C(c2sccc2Sc2ccc(OCc3ccccc3CO)cc2)N1 (stereo not drawn) [TC5] | > 10 | 1 to 10 | > 10 | 1 to 10 | 1 to 10 | 1 to 10 | > 10 | 1 to 10 | > 10 |
| Cc1cc(COc2ccc(Sc3ccsc3C3NC(=O)NC3=O)cc2)ccn1 (stereo not drawn) [TC8] | 1 to 10 | 0.1 to 1 | > 10 | 0.01 to 0.1 | 0.1 to 1 | 0.1 to 1 | 0.1 to 1 | 0.1 to 1 | 0.01 to 0.1 |
